This is an account of results in patent publication US20120157471A1, “BENZIMIDAZOLE DERIVATIVES” (PFIZER INC., priority 2009, published 2012).

Experiment [1] deals with T1, human Smo (amino acids 181-787) (Homo sapiens, UniProt Q99835).
T1 construct: expressed in transfected cells; membrane preparation
Put plainly: Smo radioligand competition binding assay (displacement of 3H-PF-03451358 from HEK293 membranes). The note with it: for inhibition at 0.05 µM: 0.05 μM test compound, displacement of 3H-PF-03451358, read-out: SMO % inh. @ 0.05 μM; for IC50: radioligand competition binding. Put shortly:
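Displacement of 3 nM tritiated PF-03451358 measured by filtration and scintillation counting after 2 h at room temperature, using 40 μg/well HEK293 membranes bearing cell-surface Smo 181-787, pH 7.5 buffer. Specific binding defined against 30 μM unlabelled ligand; IC50 via variable-slope sigmoidal fit.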

Experiment [2] concerns Gli-Luc/MEF cells (Smo). Put plainly: Gli-Luc/MEF assay (Shh-stimulated luciferase reporter under the Gli response element). In kind it is cell-based, mouse. Put shortly:
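IC50 derived from luminescence (Bright-Glo) after 48 h at 37° C, 5% CO2, with compound at […] (3-fold dilutions) added together with mouse Shh at 2 μg/mL final. Cells: MEFs from Gli-Luc transgenic mice.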

T1 sequence (Q99835 181-787): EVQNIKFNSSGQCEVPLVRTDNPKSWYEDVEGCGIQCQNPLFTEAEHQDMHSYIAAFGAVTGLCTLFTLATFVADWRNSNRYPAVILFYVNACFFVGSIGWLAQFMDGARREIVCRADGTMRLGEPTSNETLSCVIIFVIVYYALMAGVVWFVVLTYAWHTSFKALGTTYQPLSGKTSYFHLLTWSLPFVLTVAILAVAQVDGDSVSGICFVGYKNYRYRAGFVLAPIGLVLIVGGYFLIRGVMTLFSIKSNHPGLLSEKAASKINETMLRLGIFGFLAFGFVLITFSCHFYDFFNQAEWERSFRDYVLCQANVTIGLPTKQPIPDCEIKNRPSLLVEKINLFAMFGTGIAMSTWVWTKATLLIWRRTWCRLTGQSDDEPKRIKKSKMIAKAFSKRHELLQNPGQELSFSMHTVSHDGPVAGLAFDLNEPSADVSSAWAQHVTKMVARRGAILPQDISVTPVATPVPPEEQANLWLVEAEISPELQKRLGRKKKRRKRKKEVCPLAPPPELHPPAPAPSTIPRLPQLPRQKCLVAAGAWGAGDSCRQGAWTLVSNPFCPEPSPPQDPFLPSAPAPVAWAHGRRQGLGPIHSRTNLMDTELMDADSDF

As for `CC(=O)N1CCN(c2cc(-c3nc4ccccc4n3C)c(Cl)cn2)C[C@H]1C` [Example A-159, 2-{2-[(3R)-4-acetyl-3-methylpiperazin-1-yl]-5-chloropyridin-4-yl}-1-methyl-1H-benzimidazole], in experiment [1], the inhibition at 0.05 µM was 100% and the IC50 came to 0.01 µM. Besides, half-maximal inhibition in experiment [2] (Mus musculus, MEF, 48 h) (IC50) required 0.004 µM.

With `Cn1cnnc1C1CCN(c2cc(-c3nc4ccccc4n3C)c(Cl)cn2)CC1` [Example A-132, 2-{5-chloro-2-[4-(4-methyl-4H-1,2,4-triazol-3-yl)piperidin-1-yl]pyridin-4-yl}-1-methyl-1H-benzimidazole], the inhibition at 0.05 µM in experiment [1] was determined as 51%. In experiment [2] (Mus musculus, MEF, 48 h), this compound gave a concentration for half-maximal inhibition (IC50) of 0.199 µM.

As to `CNC(=O)N(C)C1CCN(c2cc(-c3nc4ccccc4n3C)c(Cl)cn2)C1` (stereo not drawn) [Example A-182, 1-{1-[5-chloro-4-(1-methyl-1H-benzimidazol-2-yl)pyridin-2-yl]pyrrolidin-3-yl}-1,3-dimethylurea], in experiment [1], the inhibition at 0.05 µM worked out at 85% and the IC50 was found to be 0.05 µM. This compound also yielded a 50% inhibitory concentration (IC50) in experiment [2] (Mus musculus, MEF, 48 h) of 0.031 µM.

As for `Cn1c(-c2cc(N3CCC(C)(O)CC3)ncc2Cl)nc2ccccc21` [Example A-30, 1-[5-chloro-4-(1-methyl-1H-benzimidazol-2-yl)pyridin-2-yl]-4-methylpiperidin-4-ol], in experiment [1], the inhibition at 0.05 µM worked out at 96% and the concentration for half-maximal inhibition (IC50) is 0.028 µM. In addition, in experiment [2] (Mus musculus, MEF, 48 h), the half-maximal inhibitory concentration (IC50) came to 0.011 µM.

Take `Cn1c(-c2cc(N3C[C@@H](O)[C@@H](O)C3)ncc2Cl)nc2ccccc21` [Example A-129, (3R,4S)-1-[5-chloro-4-(1-methyl-1H-benzimidazol-2-yl)pyridin-2-yl]pyrrolidine-3,4-diol]: in experiment [1], the inhibition at 0.05 µM was 53%. Further, the concentration for half-maximal inhibition (IC50) in experiment [2] (Mus musculus, MEF, 48 h) was determined as 0.105 µM.

Take `Cn1c(-c2cc(N3CCC(C(=O)NC4CCOC4)CC3)ncc2Cl)nc2ccccc21` (stereo not drawn) [Example A-208, 1-[5-chloro-4-(1-methyl-1H-benzimidazol-2-yl)pyridin-2-yl]-N-(tetrahydrofuran-3-yl)piperidine-4-carboxamide]: in experiment [1], the inhibition at 0.05 µM came out at 102% and the IC50 is 0.023 µM. In experiment [2] (Mus musculus, MEF, 48 h), this compound gave an IC50 of 0.0181 µM.

With `COC(=O)N1CCN(c2ncc(Cl)c(-c3nc4ccccc4n3C)n2)CC1` [Example C-5, Methyl 4-[5-chloro-4-(1-methyl-1H-benzimidazol-2-yl)pyrimidin-2-yl]piperazine-1-carboxylate], in experiment [1], the inhibition at 0.05 µM is 96% and the 50% inhibitory concentration (IC50) is 0.014 µM. Besides, the IC50 in experiment [2] (Mus musculus, MEF, 48 h) turned out to be 0.009 µM.

Turning to `Cn1c(-c2cc(N3CCC(O)(c4ccn[nH]4)C3)ncc2Cl)nc2ccccc21` (stereo not drawn) [Example A-105, 1-[5-chloro-4-(1-methyl-1H-benzimidazol-2-yl)pyridin-2-yl]-3-(1H-pyrazol-5-yl)pyrrolidin-3-ol], in experiment [1], the inhibition at 0.05 µM stood at 79% and the IC50 was found to be 0.065 µM. The half-inhibitory concentration (IC50) in experiment [2] (Mus musculus, MEF, 48 h) was 0.024 µM.

On to `Cn1c(-c2cc(N3CCN(CCS(C)(=O)=O)CC3)ncc2Cl)nc2ccccc21` [Example A-206, 2-(5-chloro-2-{4-[2-(methylsulfonyl)ethyl]piperazin-1-yl}pyridin-4-yl)-1-methyl-1H-benzimidazole], for which, in experiment [1], the inhibition at 0.05 µM was 99% and the concentration for half-maximal inhibition (IC50) was 0.017 µM. Also, 0.0171 µM corresponded to half-maximal inhibition in experiment [2] (48 hours) (IC50).

On to `CNC(=O)NC1CCN(c2cc(-c3nc4ccccc4n3C)c(Cl)cn2)C1` (stereo not drawn) [Example A-176, 1-{1-[5-chloro-4-(1-methyl-1H-benzimidazol-2-yl)pyridin-2-yl]pyrrolidin-3-yl}-3-methylurea], for which, in experiment [1], the inhibition at 0.05 µM turned out to be 82% and the IC50 was found to be 0.084 µM. In experiment [2] (Mus musculus, MEF, 48 h), the IC50 was found to be 0.022 µM.

With `CNC(=O)N(C)C1CN(c2cc(-c3nc4ccccc4n3C)c(Cl)cn2)C1` [Example A-151, 1-{1-[5-chloro-4-(1-methyl-1H-benzimidazol-2-yl)pyridin-2-yl]azetidin-3-yl}-1,3-dimethylurea], in experiment [1], the inhibition at 0.05 µM stood at 83% and the half-inhibitory concentration (IC50) was 0.09 µM. In experiment [2] (Mus musculus, MEF, 48 h), this compound came in with a half-inhibitory concentration (IC50) of 0.026 µM.

Regarding `C[C@H]1CN(S(C)(=O)=O)CCN1c1cc(-c2nc3ccccc3n2C)c(Cl)cn1` [Example A-196, 2-{5-chloro-2-[(2S)-2-methyl-4-(methylsulfonyl)piperazin-1-yl]pyridin-4-yl}-1-methyl-1H-benzimidazole], in experiment [1], the inhibition at 0.05 µM is 99% and the IC50 was found to be 0.008 µM. This compound returned a concentration for half-maximal inhibition (IC50) in experiment [2] (Mus musculus, MEF, 48 h) of 0.0067 µM.

With `Cn1c(-c2cc(N3CCN4C[C@H](O)CC4C3)ncc2Cl)nc2ccccc21` (stereo in doubt) [Example A-92, (7R,8aR)-2-[5-chloro-4-(1-methyl-1H-benzimidazol-2-yl)pyridin-2-yl]octahydropyrrolo[1,2-a]pyrazin-7-ol], in experiment [1], the inhibition at 0.05 µM was determined as 88% and the IC50 was 0.079 µM. The same compound came in with a half-maximal inhibitory concentration (IC50) in experiment [2] (Mus musculus, MEF, 48 h) of 0.046 µM.

For `Cn1c(-c2cc(N3CCCN(C4=NCCC(=O)N4)CC3)ncc2Cl)nc2ccccc21` [Example A-130, 2-{4-[5-chloro-4-(1-methyl-1H-benzimidazol-2-yl)pyridin-2-yl]-1,4-diazepan-1-yl}-5,6-dihydropyrimidin-4(3H)-one], in experiment [1], the inhibition at 0.05 µM is 53%. Also, in experiment [2] (Mus musculus, MEF, 48 h), the IC50 amounted to 0.129 µM.

`COC(=O)N1CCN(c2cc(-c3nc4ccccc4n3C)c(Cl)cn2)CC1` [Example A-2, methyl 4-[5-chloro-4-(1-methyl-1H-benzimidazol-2-yl)pyridin-2-yl]piperazine-1-carboxylate]: in experiment [1], the inhibition at 0.05 µM is 87% and the IC50 was determined as 0.0172 µM. In experiment [2] (Mus musculus, MEF, 48 h), this compound showed an IC50 of 0.003 µM.

Consider `Cn1c(-c2cc(N3CCOC(c4nc(C5CC5)no4)C3)ncc2Cl)nc2ccccc21` (stereo not drawn) [Example A-76, 2-{5-chloro-2-[2-(3-cyclopropyl-1,2,4-oxadiazol-5-yl)morpholin-4-yl]pyridin-4-yl}-1-methyl-1H-benzimidazole], for which the inhibition at 0.05 µM in experiment [1] is 92%. The 50% inhibitory concentration (IC50) turned out to be 0.035 µM in experiment [1] and 0.018 µM in experiment [2] (Mus musculus, MEF, 48 h).

`Cn1c(-c2cc(N3C[C@@H](CO)[C@@H](CO)C3)ncc2Cl)nc2ccccc21` [Example A-82, {(3R,4S)-1-[5-chloro-4-(1-methyl-1H-benzimidazol-2-yl)pyridin-2-yl]pyrrolidine-3,4-diyl}dimethanol]: in experiment [1], the inhibition at 0.05 µM was 91% and the 50% inhibitory concentration (IC50) is 0.043 µM. The compound also showed a half-inhibitory concentration (IC50) in experiment [2] (Mus musculus, MEF, 48 h) of 0.016 µM.

Consider `CC(=O)N1CCCN(c2cc(-c3nc4ccccc4n3C)c(Cl)cn2)CC1` [Example A-50, 2-[2-(4-acetyl-1,4-diazepan-1-yl)-5-chloropyridin-4-yl]-1-methyl-1H-benzimidazole], for which the inhibition at 0.05 µM in experiment [1] is 100%. Also, the IC50 came to 0.007 µM in experiment [1] and 0.004 µM in experiment [2] (Mus musculus, MEF, 48 h).

Consider `Cc1noc(C2CN(c3cc(-c4nc5ccccc5n4C)c(Cl)cn3)CCO2)n1` (stereo not drawn) [Example A-64, 2-{5-chloro-2-[2-(3-methyl-1,2,4-oxadiazol-5-yl)morpholin-4-yl]pyridin-4-yl}-1-methyl-1H-benzimidazole], for which, in experiment [1], the inhibition at 0.05 µM was found to be 95% and the IC50 worked out at 0.028 µM. This compound yielded a concentration for half-maximal inhibition (IC50) in experiment [2] (Mus musculus, MEF, 48 h) of 0.007 µM.

For the compound `CN(CCCO)c1cc(-c2nc3ccccc3n2C)c(Cl)cn1` [Example A-163, 3-{[5-chloro-4-(1-methyl-1H-benzimidazol-2-yl)pyridin-2-yl](methyl)amino}propan-1-ol], in experiment [1], the inhibition at 0.05 µM came out at 98% and the half-inhibitory concentration (IC50) is 0.017 µM. In experiment [2] (Mus musculus, MEF, 48 h), this compound displayed an IC50 of 0.014 µM.

With `Cn1c(-c2cc(N3CCC(N4CCNC(=O)C4=O)CC3)ncc2Cl)nc2ccccc21` [Example A-98, 1-{1-[5-chloro-4-(1-methyl-1H-benzimidazol-2-yl)pyridin-2-yl]piperidin-4-yl}piperazine-2,3-dione], the inhibition at 0.05 µM in experiment [1] came out at 85%. Moreover, the 50% inhibitory concentration (IC50) in experiment [1] was determined as 0.122 µM; in experiment [2] (Mus musculus, MEF, 48 h), 0.066 µM.

As for `Cn1c(-c2cc(N3CCC(O)(CO)CC3)ncc2Cl)nc2ccccc21` [Example A-69, 1-[5-chloro-4-(1-methyl-1H-benzimidazol-2-yl)pyridin-2-yl]-4-(hydroxymethyl)piperidin-4-ol], the inhibition at 0.05 µM in experiment [1] is 94%. The half-inhibitory concentration (IC50) in experiment [1] was determined as 0.027 µM; in experiment [2] (Mus musculus, MEF, 48 h), 0.01 µM.

`CN(C1CCN(c2cc(-c3nc4ccccc4n3C)c(Cl)cn2)C1)S(C)(=O)=O` (stereo not drawn) [Example A-181, N-{1-[5-chloro-4-(1-methyl-1H-benzimidazol-2-yl)pyridin-2-yl]pyrrolidin-3-yl}-N-methylmethanesulfonamide]: in experiment [1], the inhibition at 0.05 µM was determined as 98% and the half-maximal inhibitory concentration (IC50) came to 0.011 µM. The compound further came in with an IC50 in experiment [2] (Mus musculus, MEF, 48 h) of 0.009 µM.

For `CC(=O)N1CCN(c2cc(-c3nc4ccccc4n3C)ccn2)CC1` [Example A-29, 2-[2-(4-acetylpiperazin-1-yl)pyridin-4-yl]-1-methyl-1H-benzimidazole], in experiment [1], the inhibition at 0.05 µM stood at 78% and the IC50 stood at 0.061 µM. This compound also yielded a half-inhibitory concentration (IC50) in experiment [2] (Mus musculus, MEF, 48 h) of 0.11 µM.

Regarding `Cn1c(-c2cc(N3CCN(C(=O)C4CCOC4)CC3)ncc2Cl)nc2ccccc21` (stereo not drawn) [Example A-191, 2-{5-chloro-2-[4-(tetrahydrofuran-3-ylcarbonyl)piperazin-1-yl]pyridin-4-yl}-1-methyl-1H-benzimidazole], in experiment [1], the inhibition at 0.05 µM was 101% and the IC50 stood at 0.006 µM. This compound had a half-inhibitory concentration (IC50) in experiment [2] (Mus musculus, MEF, 48 h) of 0.0017 µM.

Take `Cn1c(-c2nc(N3CCOCC3)ncc2Cl)nc2ccccc21` [Example C-12, 2-(5-chloro-2-morpholin-4-ylpyrimidin-4-yl)-1-methyl-1H-benzimidazole]: the inhibition at 0.05 µM in experiment [1] is 93%. The concentration for half-maximal inhibition (IC50) came out at 0.047 µM in experiment [1] and 0.06 µM in experiment [2] (Mus musculus, MEF, 48 h).
